# Measurements from US8067424B2, “Selective inhibitors for cyclin-dependent kinases” (Emory University, priority 2007, dated 2011).
# Like-named read-outs stand apart in the source and are kept apart here.
# What was measured:
# PKD1 = biological target: T1, PKD1 (Homo sapiens, UniProt Q15139); experiment: Kinase screen: PKD1 assay; assay type: biochemical
# T1 sequence (Q15139 1-912): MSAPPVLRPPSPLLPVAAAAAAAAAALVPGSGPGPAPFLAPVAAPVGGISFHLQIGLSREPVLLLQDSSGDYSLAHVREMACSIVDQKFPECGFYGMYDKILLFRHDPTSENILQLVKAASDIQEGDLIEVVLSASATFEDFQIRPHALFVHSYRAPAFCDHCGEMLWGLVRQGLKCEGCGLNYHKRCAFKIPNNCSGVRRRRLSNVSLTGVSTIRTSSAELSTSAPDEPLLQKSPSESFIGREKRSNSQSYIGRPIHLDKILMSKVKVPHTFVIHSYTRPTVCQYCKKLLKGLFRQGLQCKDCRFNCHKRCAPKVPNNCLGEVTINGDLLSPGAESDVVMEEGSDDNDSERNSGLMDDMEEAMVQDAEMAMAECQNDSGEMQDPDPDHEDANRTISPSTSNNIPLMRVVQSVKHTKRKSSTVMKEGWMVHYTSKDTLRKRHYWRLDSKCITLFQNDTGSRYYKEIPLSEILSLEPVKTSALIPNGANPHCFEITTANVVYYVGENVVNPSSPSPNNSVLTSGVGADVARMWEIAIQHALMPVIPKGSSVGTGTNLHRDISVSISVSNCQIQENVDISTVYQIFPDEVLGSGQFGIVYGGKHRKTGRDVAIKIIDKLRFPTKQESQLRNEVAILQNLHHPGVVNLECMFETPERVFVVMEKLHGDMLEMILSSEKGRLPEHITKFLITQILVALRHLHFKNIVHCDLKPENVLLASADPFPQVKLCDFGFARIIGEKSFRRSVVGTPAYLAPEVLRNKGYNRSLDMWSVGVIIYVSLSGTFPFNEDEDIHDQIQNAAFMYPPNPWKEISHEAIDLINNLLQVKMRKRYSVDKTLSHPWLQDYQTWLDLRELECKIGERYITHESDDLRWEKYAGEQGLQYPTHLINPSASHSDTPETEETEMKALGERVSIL
# Protocol: (§1) Generally, the same procedure was used for all assays. Since the total assay volume was 25.5 microliters, 0.5 microliters of inhibitors at 51× assay concentration were added to the plates before any other addition.
# (§2) The basic procedure was to add 0.5 microliters inhibitor/control in DMSO to plate. Fifteen microliters of enzyme/substrate/buffer mix were added and incubated for 5 min. Ten microliters MgATP at the relevant concentration were added and incubated for 30 min. The assay was stopped by adding 5 microliters of 3% orthophosphoric acid. The assay was transferred to a p81 filter plate and read in a scintillation counter of 30 sec/well. Note that this assay procedure was not followed for MKK1, which instead involved a two-step assay, and PKC alpha, which required the addition of lipid vesicles.
# PKD1 assay: PKD1 (5-20 mU diluted in 50 mM Tris pH 7.5, 0.1 mM EGTA, 0.1% b-mercaptoethanol, 1 mg/ml BSA) was assayed substrate peptide ([…]) (SEQ ID NO: 3) in a final volume of 25.5 μl containing 50 mM Tris pH 7.5, 0.05% b-mercaptoethanol, 30 μM substrate peptide, 10 mM magnesium acetate and 0.05 mM [33P-g-ATP] (50-1000 cpm/pmole) and incubated for 30 min at room temperature. Assays were stopped by addition of 5 μl of 0.5 M (3%) orthophosphoric acid and then harvested onto P81 Unifilter plates with a wash buffer of 50 mM orthophosphoric acid.
# p38γ MAPK = biological target: T2, p38γ MAPK (Homo sapiens, UniProt P53778); experiment: Kinase screen: SAPK 3/p38g assay; assay type: biochemical
# T2 sequence (P53778 1-367): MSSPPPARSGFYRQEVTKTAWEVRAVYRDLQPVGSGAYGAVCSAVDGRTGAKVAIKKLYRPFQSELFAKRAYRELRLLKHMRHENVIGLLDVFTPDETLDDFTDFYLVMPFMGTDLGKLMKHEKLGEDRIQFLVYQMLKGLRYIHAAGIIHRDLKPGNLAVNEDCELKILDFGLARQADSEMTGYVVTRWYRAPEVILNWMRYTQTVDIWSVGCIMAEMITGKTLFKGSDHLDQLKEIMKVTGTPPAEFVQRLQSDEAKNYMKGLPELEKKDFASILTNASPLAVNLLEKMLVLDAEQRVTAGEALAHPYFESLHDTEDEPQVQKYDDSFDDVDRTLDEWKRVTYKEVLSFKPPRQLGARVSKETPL
# Protocol: as §1, §2
# SAPK 3/p38g assay: SAPK 3/p38g (5-20 mU diluted in 50 mM Tris pH 7.5, 0.1 mM EGTA, 0.1 mM Na3VO4, 0.1% b-mercaptoethanol, 1 mg/ml BSA) was assayed against MBP in a final volume of 25.5 μl containing 25 mM Tris pH 7.5, 0.1 mM EGTA, 0.33 mg/ml MBP, 10 mM magnesium acetate and 0.005 mM [33P-g-ATP] (50-1000 cpm/pmole) and incubated for 30 min at room temperature. Assays were stopped by addition of 5 μl of 0.5 M (3%) orthophosphoric acid and then harvested onto P81 Unifilter plates with a wash buffer of 50 mM orthophosphoric acid.
# [1] = 10 micromolar compound, read-out: mean activity remaining (as a percentage of the original activity), PKD1
# [2] = 10 micromolar compound, read-out: mean activity remaining (as a percentage of the original activity), p38g MAPK
SMILES,remaining activity at 10 µM (PKD1; [1]) [%],remaining activity at 10 µM (p38γ MAPK; [2]) [%],further results
CC(C)c1cnn2c(NCc3ccccc3)cc(NCCCCCCCN)nc12 [BS-181],–,–,"remaining activity at 10 µM (PKD1; PKD1, 10 μM, read-out: Mean Remaining Enzyme Activity (%)): 53%; remaining activity at 10 µM (p38γ MAPK; p38γ MAPK, 10 μM, read-out: Mean Remaining Enzyme Activity (%)): 108%"
C=C[C@H](CO)Nc1cc(NCc2ccccc2)n2ncc(C(C)C)c2n1 [ICEC0065],88,108,–
CC[C@H](CO)Nc1cc(NCc2ccccc2)n2ncc(C(C)C)c2n1 [ICEC0067],87,82,–
"CC(C)c1cnn2c(NCc3ccccc3)cc(N[C@@H](CO)[C@H](O)CO)nc12 [ICEC0318, (3S)-3-(7-(Benzylamino)-3-isopropylpyrazolo[1,5-a]pyrimidin-5-ylamino)butane-1,2,4-triol]",97,112,–
CC(C)c1cnn2c(NCc3ccccc3F)cc(NCCCCCN)nc12 [ICEC-0232],–,–,"mean activity remaining (as a percentage of the original activity), PKD1 (PKD1; 10 micromolar compound): 32%; mean activity remaining (as a percentage of the original activity), p38g MAPK (p38γ MAPK; 10 micromolar compound): 91%"
